Experiment [1] concerns invasive ductal carcinoma-positive, ductal carcinoma in situ-positive and cancer-negative tissue. The experiment can be described thus: Staining of cancer tissue in a living tissue state. The class given is cell-based. Conditions: 5, 10, 20 μM, 5 minutes at room temperature; FIG. 2. Here is the method: An invasive ductal carcinoma-positive tissue (IDC-positive), a ductal carcinoma in situ-positive tissue (DCIS-positive), and a cancer-negative tissue (Cancer-negative) were each immersed in a TAMRA-PhN3 solution (5 μM, 10 μM, 20 μM). These tissues were incubated at room temperature for 5 minutes. The tissues were each stained in a living tissue state. […] Note that cell nuclei are stained with DAPI.
In FIG. 2, “Eyesight” indicates a photograph of each tissue that has been stained, and “Microscopy (×1)”, “Microscopy (×200)”, and “Microscopy (×400)” each indicate results of observations carried out with use of microscopes having respective magnifications of 1 time, 200 times, and 400 times.

Experiment [2] relates to acrolein. The experiment can be described thus: Selective detection of acrolein: fluorescence staining of 11 normal and cancer cell lines. The class given is cell-based, human. Conditions: 2.5-22.5 μM, 30 minutes at room temperature, with a higher concentration; FIG. 1. The procedure: The following 11 cell lines were seeded in 96 wells (4×10^4 cells/well) and left to stand for 24 hours before treatment so that the cell lines were adhered to the wells.
Normal cell: normal human diploid fibroblast (TIG3), normal human umbilical vein endothelial cell (HUVEC), normal human mammary gland cell (MCF10A)
Cancer cell: SKBR3 (human breast cancer cell), MDA-MB-231 (human breast cancer cell), BxPC3 (human pancreatic cancer cell), HT29 (human colonic cancer cell), MCF7 (human breast cancer cell), A549 (human lung cancer cell), HeLaS3 (human cervical cancer cell), PC3 (human prostatic cancer cell)
The cells were treated by adding, to media, 100 μL of TAMRA-PhN3 solutions (2.5 μM, 7.5 μM, 12.5 μM, 17.5 μM, 22.5 μM) described in Non-patent Literature 1 and Example 2. Then, the cells were incubated at room temperature for 30 minutes. The cells were fixed by paraformaldehyde, and fluorescence was recorded with use of Spectra Max M2e (Molecular Devices, LLC.).
In FIG. 1, the vertical axis represents a relative fluorescence intensity (arbitrary unit), and the horizontal axis represents a result of staining (fluorescence) of each normal or cancer cell.

For experiment [3], the system named is acrolein that is generated from a cell. The experiment can be described thus: Sensitivity comparison with conventional detection reagent: staining of normal and cancer cells. The class given is cell-based, human. As to conditions: for acrolein concentration level that can be detected: acrolein generated from a cell, suggested from FIG. 3 staining; for identification of localization and morphology of a cancer cell: at a low reagent concentration (0.25-1.5 μM, 5 minutes). The procedure:
Respective detection sensitivities of a detection reagent (TAMRA-PhN3) represented by Formula below and the compound 7 (TAMRA-di-iPr-PhN3) prepared in Example 1 were compared. Cells illustrated in FIG. 3 (for description of cell strains, see also Reference Example 1) were each immersed in an aqueous solution, containing the detection reagent at a concentration of 0.25 μM, 0.75 μM, or 1.5 μM, for 5 minutes so as to be stained.

Take `CN(C)c1ccc2c(-c3ccc(C(=O)NCc4ccc(N=[N+]=[N-])cc4)cc3C(=O)[O-])c3ccc(=[N+](C)C)cc-3oc2c1` [TAMRA-PhN3]: the “observation of localization and morphology of a cancer cell in a living tissue” value in experiment [1] was “possible to observe localization and morphology of a cancer cell in detail in a living tissue”. Further, in experiment [2], the “reaction product with acrolein (relative fluorescence intensity)” value is on record as “increase in reaction product (fluorescence intensity)”. In experiment [3], the “acrolein concentration level that can be detected” value was “nM-level”; the “identification of localization and morphology of a cancer cell” value is “cannot be identified”.

`CC(C)c1cc(CNC(=O)c2ccc(-c3c4ccc(=[N+](C)C)cc-4oc4cc(N(C)C)ccc34)c(C(=O)[O-])c2)cc(C(C)C)c1N=[N+]=[N-]` [compound 7, 5-carboxymethylrhodamine-diisopropylphenylazide]: in experiment [3], the “acrolein concentration level that can be detected” value is “pM level”; the “identification of localization and morphology of a cancer cell” value was “possible to identify localization and morphology of a cancer cell”. The “detection sensitivity relative to TAMRA-PhN3” value in experiment [3] (cells immersed in aqueous solution of reagent at 0.25, 0.75 or 1.5 μM for 5 minutes, FIG. 3) is “not less than 100 times”.

These data come from patent US20210179853A1, “DRUG THAT REACTS WITH ACROLEIN, USE THEREOF AND NOVEL COMPOUND” (RIKEN, priority 2018, published 2021).
